This is an account of results in BindingDB's records for doi:10.1021/jm8010993.

What all share (assay): PDE4 Enzyme Assay
What all share (settings): pH 8; 34 °C

Experiment [1] concerns the target cAMP-specific 3',5'-cyclic phosphodiesterase 4D (Homo sapiens, UniProt Q08499). How it is done:
(§1) The samples were assayed in a solution composed of PDE4, [3H]cAMP/cAMP, and test compounds. To convert AMP to adenosine, snake venom was added to each sample after reactions were stopped. The reaction products were separated by anion-exchange chromatography performed on AGl-X8 resin, and the amount of unbound [3H] adenosine was collected and quantified by scintillation counting.

Experiment [2] has as its target cAMP-specific 3',5'-cyclic phosphodiesterase 4A (Homo sapiens, UniProt P27815). The method, then:
as §1

Experiment [3] has as its target cAMP-specific 3',5'-cyclic phosphodiesterase 4B (Homo sapiens, UniProt Q07343). The method, then: as §1

cAMP-specific 3',5'-cyclic phosphodiesterase 4D, sequence (Q08499 whole entry): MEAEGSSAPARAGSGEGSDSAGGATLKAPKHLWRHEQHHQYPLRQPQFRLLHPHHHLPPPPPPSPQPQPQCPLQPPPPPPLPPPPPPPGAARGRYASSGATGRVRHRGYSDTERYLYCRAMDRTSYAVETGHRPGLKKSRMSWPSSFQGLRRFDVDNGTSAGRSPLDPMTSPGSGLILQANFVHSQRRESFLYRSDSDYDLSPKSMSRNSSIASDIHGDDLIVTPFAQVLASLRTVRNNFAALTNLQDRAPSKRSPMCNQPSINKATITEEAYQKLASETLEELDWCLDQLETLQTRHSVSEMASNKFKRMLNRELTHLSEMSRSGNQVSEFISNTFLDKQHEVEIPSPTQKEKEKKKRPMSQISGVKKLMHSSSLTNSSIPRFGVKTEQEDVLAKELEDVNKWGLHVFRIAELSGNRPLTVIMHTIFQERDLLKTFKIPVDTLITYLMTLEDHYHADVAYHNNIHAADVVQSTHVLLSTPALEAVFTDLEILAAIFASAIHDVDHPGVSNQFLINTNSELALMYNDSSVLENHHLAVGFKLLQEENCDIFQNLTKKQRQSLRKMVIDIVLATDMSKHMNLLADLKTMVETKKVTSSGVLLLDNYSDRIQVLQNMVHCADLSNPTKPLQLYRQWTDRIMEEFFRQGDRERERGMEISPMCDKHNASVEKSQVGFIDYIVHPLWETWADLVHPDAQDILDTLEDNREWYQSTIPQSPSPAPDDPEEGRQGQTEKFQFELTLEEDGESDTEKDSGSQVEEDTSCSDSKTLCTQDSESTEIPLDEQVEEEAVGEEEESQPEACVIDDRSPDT
cAMP-specific 3',5'-cyclic phosphodiesterase 4B, sequence (Q07343 whole entry): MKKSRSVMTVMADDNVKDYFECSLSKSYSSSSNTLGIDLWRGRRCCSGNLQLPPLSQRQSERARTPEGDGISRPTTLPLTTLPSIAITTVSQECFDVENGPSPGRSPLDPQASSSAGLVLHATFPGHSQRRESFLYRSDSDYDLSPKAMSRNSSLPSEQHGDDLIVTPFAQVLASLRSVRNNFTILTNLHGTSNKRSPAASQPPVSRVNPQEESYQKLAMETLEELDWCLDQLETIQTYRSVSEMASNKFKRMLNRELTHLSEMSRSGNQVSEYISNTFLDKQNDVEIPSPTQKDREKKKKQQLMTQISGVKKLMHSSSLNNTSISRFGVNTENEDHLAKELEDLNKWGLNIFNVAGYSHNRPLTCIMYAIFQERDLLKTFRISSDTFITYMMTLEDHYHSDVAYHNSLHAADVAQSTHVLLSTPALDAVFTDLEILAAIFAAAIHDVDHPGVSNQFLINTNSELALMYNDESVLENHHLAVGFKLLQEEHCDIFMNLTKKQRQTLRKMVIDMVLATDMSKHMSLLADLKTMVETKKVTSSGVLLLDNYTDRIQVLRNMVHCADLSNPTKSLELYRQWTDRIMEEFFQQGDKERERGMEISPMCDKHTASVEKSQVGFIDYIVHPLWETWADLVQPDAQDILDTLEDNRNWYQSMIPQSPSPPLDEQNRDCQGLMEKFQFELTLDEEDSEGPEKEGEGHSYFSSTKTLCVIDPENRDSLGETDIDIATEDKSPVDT
cAMP-specific 3',5'-cyclic phosphodiesterase 4A, sequence (P27815 whole entry): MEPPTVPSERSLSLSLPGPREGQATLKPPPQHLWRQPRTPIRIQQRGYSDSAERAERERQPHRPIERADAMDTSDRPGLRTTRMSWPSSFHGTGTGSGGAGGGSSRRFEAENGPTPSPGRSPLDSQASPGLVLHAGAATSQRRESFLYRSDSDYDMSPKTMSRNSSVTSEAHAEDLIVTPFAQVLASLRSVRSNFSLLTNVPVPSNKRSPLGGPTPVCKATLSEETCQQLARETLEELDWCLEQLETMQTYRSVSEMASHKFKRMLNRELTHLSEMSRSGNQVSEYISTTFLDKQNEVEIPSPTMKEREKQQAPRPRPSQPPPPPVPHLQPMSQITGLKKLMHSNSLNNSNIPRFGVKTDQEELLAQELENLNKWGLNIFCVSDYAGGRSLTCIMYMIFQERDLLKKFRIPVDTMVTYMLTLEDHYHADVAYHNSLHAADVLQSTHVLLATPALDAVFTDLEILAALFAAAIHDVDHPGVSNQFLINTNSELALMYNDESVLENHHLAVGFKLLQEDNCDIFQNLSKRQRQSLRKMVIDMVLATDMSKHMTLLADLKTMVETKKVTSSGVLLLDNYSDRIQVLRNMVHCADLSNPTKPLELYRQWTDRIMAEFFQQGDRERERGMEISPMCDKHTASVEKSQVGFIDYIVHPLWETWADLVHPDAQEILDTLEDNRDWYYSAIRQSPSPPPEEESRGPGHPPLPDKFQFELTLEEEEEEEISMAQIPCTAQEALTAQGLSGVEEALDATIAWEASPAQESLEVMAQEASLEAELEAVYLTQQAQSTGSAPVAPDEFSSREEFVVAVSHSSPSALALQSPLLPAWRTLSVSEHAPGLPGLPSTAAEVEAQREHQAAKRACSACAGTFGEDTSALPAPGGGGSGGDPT

One may read the Ki as a dissociation constant, usually derived from enzyme kinetics or from competition with a known ligand. Lower therefore signals higher affinity. Take `COc1ccc(F)c(CCC2CCC(CCNCCCCCN3N=C(c4ccc(OC)c(OC)c4)C4CC=CCC4C3=O)O2)c1` (stereo not drawn) [phthalazinone, 21]: the Ki is 0.002 µM in experiment [1], over 1 µM in experiment [2] and 0.199 µM in experiment [3].
